Numbered stars: 1 amine (or outer) side, 2 acyl side, 3 side chain; on linkers, the order of the positions; unused ones are H or OH. Square brackets hold non-standard residues; d marks the D form. Peptide text beside a SMILES is read from it. * marks the point of attachment. X2 = CC(C)C[C@H](N[*:1])[C@@H](O)C(F)(F)C(=O)[*:2]; X1 = CC(C)C[C@H](N[*:1])C(=O)C(F)(F)C(=O)[*:2]; X3 = CC(C)C[C@H](N[*:1])C(=O)CC(=O)[*:2]; Sta = CC(C)C[C@H](N)[C@@H](O)CC(=O)O; Boc = CC(C)(C)OC(=O)*

The results in this text go back to ChEMBL document CHEMBL1123887, “Fluoro ketone containing peptides as inhibitors of human renin” (J Med Chem, 1987).

The test concerns the target T1, Renin (Homo sapiens, UniProt P00797).
T1 sequence (P00797 whole entry): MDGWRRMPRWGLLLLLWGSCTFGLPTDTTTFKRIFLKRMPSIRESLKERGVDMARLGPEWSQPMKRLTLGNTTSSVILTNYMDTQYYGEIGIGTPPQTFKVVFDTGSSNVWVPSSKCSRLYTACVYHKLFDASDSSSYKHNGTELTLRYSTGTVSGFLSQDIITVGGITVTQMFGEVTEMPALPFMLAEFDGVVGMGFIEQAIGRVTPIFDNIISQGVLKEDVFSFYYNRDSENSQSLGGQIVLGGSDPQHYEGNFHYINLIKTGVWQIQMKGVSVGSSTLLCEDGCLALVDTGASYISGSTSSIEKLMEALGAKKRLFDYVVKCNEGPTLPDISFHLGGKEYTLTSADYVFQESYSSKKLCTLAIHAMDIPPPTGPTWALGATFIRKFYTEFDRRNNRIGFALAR
Briefly: Compound was evaluated for inhibitory activity against human kidney renin. It is filed as tissue-based.
As usually defined, the Ki is a measure of affinity in units of concentration, obtained from inhibition or displacement. Read a high Ki as a looser hold on the target. Take `CC(C)C[C@H](NC(=O)C(F)(F)[C@H](O)[C@H](CC(C)C)NC(=O)[C@@H](/C=C/[C@H](Cc1ccccc1)NC(=O)OC(C)(C)C)Cc1ccccc1)C(=O)N[C@@H](Cc1ccccc1)C(N)=O`: the affinity corresponds to a Ki of 12000 nM.
As for `COC(=O)[C@@H](/C=C/[C@H](CC(C)C)NC(=O)C(F)(F)C(=O)[C@H](CC(C)C)NC(=O)[C@H](Cc1ccccc1)NC(=O)[C@H](Cc1ccccc1)NC(=O)OC(C)(C)C)Cc1ccccc1`, the Ki amounted to 1200 nM.
The result for `COC(=O)[C@@H](/C=C/[C@H](CC(C)C)NC(=O)C(F)(F)[C@H](O)[C@H](CC(C)C)NC(=O)[C@H](Cc1ccccc1)NC(=O)[C@H](Cc1ccccc1)NC(=O)OC(C)(C)C)Cc1ccccc1` reads 16000 nM.
In the case of `CC(C)C[C@H](NC(=O)C[C@H](O)[C@H](CC(C)C)NC(=O)[C@H](Cc1ccccc1)NC(=O)[C@H](Cc1ccccc1)NC(=O)OC(C)(C)C)C(=O)N[C@@H](Cc1ccccc1)C(N)=O` (Boc-FF[Sta]LF-NH2), the affinity corresponds to a Ki of 52 nM.
The compound `CC(C)C[C@H](NC(=O)C(F)(F)C(=O)[C@H](CC(C)C)NC(=O)[C@H](Cc1ccccc1)NC(=O)[C@H](Cc1ccccc1)NC(=O)OC(C)(C)C)C(=O)N[C@@H](Cc1ccccc1)C(N)=O` (Boc-FF[X1]LF-NH2) came in with a Ki of 7 nM.
`CC(C)C[C@H](NC(=O)C(F)(F)[C@H](O)[C@H](CC(C)C)NC(=O)[C@H](Cc1ccccc1)NC(=O)[C@H](Cc1ccccc1)NC(=O)OC(C)(C)C)C(=O)N[C@@H](Cc1ccccc1)C(N)=O` (Boc-FF[X2]LF-NH2) yielded a Ki of 120 nM.
`CC(C)C[C@H](NC(=O)[C@H](Cc1ccccc1)NC(=O)[C@H](Cc1ccccc1)NC(=O)OC(C)(C)C)C(=O)CC(=O)N[C@@H](CC(C)C)C(=O)N[C@@H](Cc1ccccc1)C(N)=O` (Boc-FF[X3]LF-NH2): the affinity corresponds to a Ki of 154 nM.
